According to publication PMC4992173, “Divergent synthesis and identification of the cellular targets of deoxyelephantopins” (Nature Communications, 2016):

System: 11 identified targets in MCF7 cells
Assay: Targeted in situ competitive profiling in live MCF7 cells, all 11 targets
Assay type: cell-based, human
Conditions: intact MCF7 cells, 20 µM, 4 h, then 10 µM 24c
Text: In our efforts to determine the direct molecular targets of deoxyelephantopin we first performed a gel-based competitive in situ proteomic profiling assay[41] […] While the greater conformational flexibility of probe 24c could potentially lead to more promiscuous target engagement relatively to deoxyelephantopin, it was favoured based on the fact that an alkyne moiety appended to the rigid scaffold of deoxyelephantopin may hinder some of its interactions. MCF7 cells were pretreated with various concentrations of deoxyelephantopin for 4 h, harvested, lysed and the lysates were treated with the fluorogenic probe 24c-Cy3 (10 μM; Supplementary Fig. 10). […] Furthermore, cells were pretreated with 20 μM concentration of deoxyelephantopin or 24c and the proteomic profiles were compared (Fig. 6b, Supplementary Fig. 11). Multiple bands were detected that were equally competed by both DEP and 24c, thus again confirming that 24c can be used as an acceptable clickable analogue of deoxyelephantopin in pulldown assays. Having established the optimal labelling conditions by SDS–PAGE, we next carried out a mass spectrometry-based competitive profiling assay[42] coupled with the method of stable isotope labelling of amino acids in culture (SILAC)[43]. […]
Figure 6 Proteome-wide identification of deoxyelephantopin targets. […] Quantification was performed using label-free quantification (LFQ) method (n=4). […]

C=C(C)C(=O)O[C@H]1CC2=C[C@@H](C/C(C)=C/[C@H]3OC(=O)C(=C)[C@H]13)OC2=O [deoxyelephantopin]
competition of all 11 targets in situ: > 70%
